Experimental data published in ChEMBL document CHEMBL1142912, “Novel piperazines: potent melanocortin-4 receptor antagonists with anxiolytic-like activity” (Bioorg Med Chem, 2007).
Active and inactive are the calls of the source. No cut-off for these calls is given here.

Tests used:
Melanocortin receptor 4 = Melanocortin receptor 4 (Homo sapiens, UniProt P32245); assay: Displacement of [125I][Nle4,D-Phe7]alphaMSH from human MC4R expressed in COS7 cells; type: cell-based, COS-7
[1] = molecular target: T1, Adrenergic receptor alpha-1 (Rattus norvegicus, UniProt P15823+P23944+P43140); assay: Displacement of [3H]prazosin from Adrenergic alpha-1 receptor in rat cortical membrane; type: cell membranes
T1 sequence (P15823 whole entry): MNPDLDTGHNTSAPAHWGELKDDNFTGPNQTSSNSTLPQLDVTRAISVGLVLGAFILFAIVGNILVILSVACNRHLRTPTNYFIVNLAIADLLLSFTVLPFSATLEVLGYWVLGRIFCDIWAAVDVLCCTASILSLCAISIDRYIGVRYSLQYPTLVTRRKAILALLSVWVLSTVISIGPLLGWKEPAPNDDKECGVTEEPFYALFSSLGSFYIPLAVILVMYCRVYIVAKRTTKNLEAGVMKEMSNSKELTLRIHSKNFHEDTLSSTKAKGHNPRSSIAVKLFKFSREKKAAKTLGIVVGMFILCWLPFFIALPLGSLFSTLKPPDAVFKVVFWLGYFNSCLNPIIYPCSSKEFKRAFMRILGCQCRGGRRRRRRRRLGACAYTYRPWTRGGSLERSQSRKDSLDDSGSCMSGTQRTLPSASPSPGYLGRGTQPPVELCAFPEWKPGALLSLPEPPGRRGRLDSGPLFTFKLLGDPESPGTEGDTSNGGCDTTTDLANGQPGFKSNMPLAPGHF
T1 sequence (P23944 whole entry): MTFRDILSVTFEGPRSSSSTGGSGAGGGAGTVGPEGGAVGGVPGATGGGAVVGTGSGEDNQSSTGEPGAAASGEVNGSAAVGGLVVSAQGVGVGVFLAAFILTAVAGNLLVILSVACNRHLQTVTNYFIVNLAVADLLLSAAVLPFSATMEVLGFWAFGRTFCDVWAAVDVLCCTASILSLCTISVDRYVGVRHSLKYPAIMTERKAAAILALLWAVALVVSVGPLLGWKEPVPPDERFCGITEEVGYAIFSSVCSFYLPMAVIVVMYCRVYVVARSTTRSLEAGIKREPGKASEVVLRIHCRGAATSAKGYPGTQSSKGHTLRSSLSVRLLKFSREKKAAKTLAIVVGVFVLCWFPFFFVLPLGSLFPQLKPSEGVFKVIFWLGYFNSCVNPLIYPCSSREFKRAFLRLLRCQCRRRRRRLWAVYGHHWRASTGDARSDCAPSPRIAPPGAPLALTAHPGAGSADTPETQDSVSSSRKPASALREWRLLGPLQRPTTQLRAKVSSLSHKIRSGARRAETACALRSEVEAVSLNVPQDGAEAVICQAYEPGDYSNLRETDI
T1 sequence (P43140 whole entry): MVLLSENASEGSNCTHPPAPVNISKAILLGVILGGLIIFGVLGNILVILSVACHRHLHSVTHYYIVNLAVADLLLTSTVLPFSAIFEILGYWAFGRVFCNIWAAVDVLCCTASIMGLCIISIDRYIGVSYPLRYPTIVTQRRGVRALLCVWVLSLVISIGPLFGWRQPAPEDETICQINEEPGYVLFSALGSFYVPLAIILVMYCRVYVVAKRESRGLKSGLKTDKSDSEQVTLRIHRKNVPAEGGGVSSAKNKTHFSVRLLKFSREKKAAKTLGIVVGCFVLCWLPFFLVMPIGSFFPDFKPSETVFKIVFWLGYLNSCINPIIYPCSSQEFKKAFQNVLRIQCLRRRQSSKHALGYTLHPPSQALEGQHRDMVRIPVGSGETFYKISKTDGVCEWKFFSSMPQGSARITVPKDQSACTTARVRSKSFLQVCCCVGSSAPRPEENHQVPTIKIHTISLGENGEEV

Histamine H1 receptor = Histamine H1 receptor (Rattus norvegicus, UniProt P31390); assay: Displacement of [3H]pyrilamine from histamine H1 receptor in rat brain membrane; type: cell membranes
D(2) dopamine receptor = D(2) dopamine receptor (Rattus norvegicus, UniProt P61169); assay: Displacement of [3H]raclopride from dopamine receptor D2 in rat striatal membrane; type: cell membranes, Striatum
Mu-type opioid receptor = Mu-type opioid receptor (Rattus norvegicus, UniProt P33535); assay: Displacement of [3H]DAMGO from mu opioid receptor in rat brain membrane; type: cell membranes
[2] = molecular target: Delta-type opioid receptor (Rattus norvegicus, UniProt P33533); assay: Displacement of [3H]DPDPE from delta opioid receptor in rat brain membrane; type: cell membranes
[3] = molecular target: Sodium-dependent serotonin transporter (Rattus norvegicus, UniProt P31652); assay: Displacement of [3H]paroxetine from serotonin transporter in rat cortical membrane; type: cell membranes
[4] = molecular target: Norepinephrine transporter (Rattus norvegicus, UniProt Q9WTR4); assay: Displacement of [3H]nisoxetine from NET in rat cortical membrane; type: cell membranes
Rattus norvegicus = assay: Reversal of stress-induced anxiety-like behavior in Sprague-Dawley rat at 1 mg/kg, po; type: functional, organism-based; set-up: dose 1 mg/kg

Chain of Sodium-dependent serotonin transporter (P31652 whole entry): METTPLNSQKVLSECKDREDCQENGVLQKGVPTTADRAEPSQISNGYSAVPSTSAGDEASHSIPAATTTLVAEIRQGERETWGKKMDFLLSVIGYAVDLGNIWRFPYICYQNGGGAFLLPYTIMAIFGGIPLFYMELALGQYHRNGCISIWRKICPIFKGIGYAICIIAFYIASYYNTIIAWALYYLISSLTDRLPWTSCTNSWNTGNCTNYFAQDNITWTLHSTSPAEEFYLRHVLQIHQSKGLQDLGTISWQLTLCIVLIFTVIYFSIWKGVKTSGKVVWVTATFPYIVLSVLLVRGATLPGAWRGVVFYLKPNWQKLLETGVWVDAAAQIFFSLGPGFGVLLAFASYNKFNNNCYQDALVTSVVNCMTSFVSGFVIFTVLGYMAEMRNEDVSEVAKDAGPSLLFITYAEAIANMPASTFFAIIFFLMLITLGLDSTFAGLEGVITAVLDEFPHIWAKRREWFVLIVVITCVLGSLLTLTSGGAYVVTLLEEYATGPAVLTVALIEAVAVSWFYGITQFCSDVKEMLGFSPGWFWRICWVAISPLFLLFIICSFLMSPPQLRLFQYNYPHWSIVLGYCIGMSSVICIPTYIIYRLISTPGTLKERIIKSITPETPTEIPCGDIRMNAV
Chain of Melanocortin receptor 4 (P32245 whole entry): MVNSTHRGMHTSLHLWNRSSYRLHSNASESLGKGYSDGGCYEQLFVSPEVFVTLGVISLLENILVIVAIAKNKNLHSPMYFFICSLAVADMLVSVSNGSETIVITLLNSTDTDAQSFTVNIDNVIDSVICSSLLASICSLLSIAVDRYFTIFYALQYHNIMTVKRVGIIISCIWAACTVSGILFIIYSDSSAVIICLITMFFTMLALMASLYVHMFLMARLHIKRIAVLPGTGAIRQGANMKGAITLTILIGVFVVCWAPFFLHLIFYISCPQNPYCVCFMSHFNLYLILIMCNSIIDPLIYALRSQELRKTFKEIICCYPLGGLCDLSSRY
Chain of Norepinephrine transporter (Q9WTR4 whole entry): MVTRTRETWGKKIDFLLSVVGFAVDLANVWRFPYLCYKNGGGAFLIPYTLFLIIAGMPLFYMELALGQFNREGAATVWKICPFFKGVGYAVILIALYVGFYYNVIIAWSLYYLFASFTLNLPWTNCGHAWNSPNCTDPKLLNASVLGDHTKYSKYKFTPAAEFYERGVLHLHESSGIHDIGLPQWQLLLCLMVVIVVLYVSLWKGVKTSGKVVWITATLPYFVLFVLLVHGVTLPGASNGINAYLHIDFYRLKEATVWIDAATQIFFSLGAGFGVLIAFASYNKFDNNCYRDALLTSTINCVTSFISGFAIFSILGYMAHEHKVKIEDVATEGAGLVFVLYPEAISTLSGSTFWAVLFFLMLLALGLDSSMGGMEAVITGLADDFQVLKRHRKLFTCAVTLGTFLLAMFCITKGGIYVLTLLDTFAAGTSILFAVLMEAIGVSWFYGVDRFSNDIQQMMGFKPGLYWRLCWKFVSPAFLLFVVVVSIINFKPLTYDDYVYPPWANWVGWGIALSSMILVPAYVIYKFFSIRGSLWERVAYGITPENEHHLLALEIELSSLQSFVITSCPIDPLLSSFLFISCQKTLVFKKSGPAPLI
Chain of D(2) dopamine receptor (P61169 whole entry): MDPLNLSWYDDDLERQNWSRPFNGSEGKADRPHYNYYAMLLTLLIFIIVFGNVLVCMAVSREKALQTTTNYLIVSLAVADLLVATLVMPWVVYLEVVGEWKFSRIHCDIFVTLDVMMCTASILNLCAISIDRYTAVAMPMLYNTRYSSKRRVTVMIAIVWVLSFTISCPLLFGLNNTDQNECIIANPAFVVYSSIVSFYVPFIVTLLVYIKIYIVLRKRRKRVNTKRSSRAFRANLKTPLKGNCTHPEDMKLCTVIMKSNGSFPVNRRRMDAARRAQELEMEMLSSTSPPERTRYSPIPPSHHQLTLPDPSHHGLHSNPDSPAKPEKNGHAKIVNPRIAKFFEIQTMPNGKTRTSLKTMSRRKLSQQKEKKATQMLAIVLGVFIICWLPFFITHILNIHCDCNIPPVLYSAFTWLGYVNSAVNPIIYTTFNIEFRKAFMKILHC
Chain of Mu-type opioid receptor (P33535 whole entry): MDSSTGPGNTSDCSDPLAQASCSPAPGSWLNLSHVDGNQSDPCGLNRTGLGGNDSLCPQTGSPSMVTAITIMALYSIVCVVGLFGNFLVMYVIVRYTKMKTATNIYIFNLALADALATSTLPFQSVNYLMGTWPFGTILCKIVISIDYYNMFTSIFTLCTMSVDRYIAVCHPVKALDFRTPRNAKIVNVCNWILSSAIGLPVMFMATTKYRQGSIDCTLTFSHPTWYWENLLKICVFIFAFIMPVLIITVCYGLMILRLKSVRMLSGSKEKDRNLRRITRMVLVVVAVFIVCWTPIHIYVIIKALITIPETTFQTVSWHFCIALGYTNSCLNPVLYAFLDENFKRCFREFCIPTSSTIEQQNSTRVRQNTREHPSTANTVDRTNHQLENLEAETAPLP
Chain of Histamine H1 receptor (P31390 whole entry): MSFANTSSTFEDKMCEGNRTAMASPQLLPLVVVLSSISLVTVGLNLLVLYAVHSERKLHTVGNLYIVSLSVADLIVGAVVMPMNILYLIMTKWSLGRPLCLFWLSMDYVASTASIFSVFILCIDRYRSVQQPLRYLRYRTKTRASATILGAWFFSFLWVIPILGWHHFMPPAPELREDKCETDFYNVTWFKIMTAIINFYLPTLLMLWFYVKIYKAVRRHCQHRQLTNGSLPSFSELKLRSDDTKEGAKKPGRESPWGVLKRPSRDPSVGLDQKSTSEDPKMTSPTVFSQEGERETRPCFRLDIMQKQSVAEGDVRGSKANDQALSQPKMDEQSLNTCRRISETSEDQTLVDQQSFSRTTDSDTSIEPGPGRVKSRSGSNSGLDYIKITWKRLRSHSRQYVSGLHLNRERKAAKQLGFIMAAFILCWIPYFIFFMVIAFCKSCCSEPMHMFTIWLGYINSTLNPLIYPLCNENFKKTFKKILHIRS
Chain of Delta-type opioid receptor (P33533 whole entry): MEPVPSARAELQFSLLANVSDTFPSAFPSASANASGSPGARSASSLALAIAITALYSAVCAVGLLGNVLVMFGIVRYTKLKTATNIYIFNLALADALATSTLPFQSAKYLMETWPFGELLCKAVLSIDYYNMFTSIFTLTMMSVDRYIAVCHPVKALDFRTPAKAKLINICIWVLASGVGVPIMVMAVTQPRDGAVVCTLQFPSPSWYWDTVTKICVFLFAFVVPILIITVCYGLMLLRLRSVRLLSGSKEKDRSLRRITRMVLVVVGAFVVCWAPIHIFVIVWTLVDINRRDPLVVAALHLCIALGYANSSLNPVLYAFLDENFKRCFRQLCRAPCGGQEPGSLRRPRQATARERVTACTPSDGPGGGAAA

SMILES | IC50 (Melanocortin receptor 4) | IC50 [1] | IC50 (Histamine H1 receptor) | IC50 (D(2) dopamine receptor) | IC50 (Mu-type opioid receptor) | IC50 [2] | IC50 [3] | IC50 [4] | Activity (Rattus norvegicus)
CC(C)N1CCC(C(CN2CCN(CCCc3ccc(F)cc3-c3ccccc3)CC2)c2ccc(F)cc2)CC1 (racemic) | 52.7 nM |  |  |  |  |  |  |  | 
CC(C)N1CCC(C(CN2CCN(CCCc3c(F)cccc3-c3ccccc3)CC2)c2ccc(F)cc2)CC1.Cl (racemic) | 18.3 nM | > 1000 nM | > 1000 nM | > 1000 nM | > 10000 nM | > 10000 nM | 723 nM | 491 nM | 
COc1ccc2ccccc2c1CCCCN1CCN(CC(c2ccc(F)cc2)C2CCN(C(C)C)CC2)CC1.Cl (racemic) | 40.3 nM | > 1000 nM | > 1000 nM | > 1000 nM | > 10000 nM | > 10000 nM | 877 nM | 2830 nM | 
CC(C)N1CCC(C(CN2CCN(CCCc3ccccc3-c3ccc(F)cc3)CC2)c2ccc(F)cc2)CC1.Cl (racemic) | 14.5 nM | > 1000 nM | > 1000 nM | 820 nM | > 10000 nM | > 10000 nM | 3940 nM | 729 nM | 
CN1CCC(C(CN2CCN(CCCCc3cccc4ccccc34)CC2)c2ccc(F)cc2)CC1 (racemic) | 333 nM |  |  |  |  |  |  |  | 
CC(C)N1CCC(C(CN2CCN(CCCc3cccc(F)c3-c3ccccc3)CC2)c2ccc(F)cc2)CC1.Cl (racemic) | 19.8 nM | > 1000 nM | > 1000 nM | 482 nM | > 10000 nM | > 10000 nM | 3130 nM | 3940 nM | Active
CC(C)N1CCC(C(CN2CCN(CCCc3cc(F)ccc3-c3ccccc3)CC2)c2ccc(F)cc2)CC1 (racemic) | 52.2 nM |  |  |  |  |  |  |  | 
CC(C)N1CCC(C(CN2CCN(CCCc3ccccc3-c3ccccc3F)CC2)c2ccc(F)cc2)CC1 (racemic) | 98.6 nM |  |  |  |  |  |  |  | 
CC(C)N1CCC(C(CN2CCN(CCCc3ccccc3-c3cccc(F)c3)CC2)c2ccc(F)cc2)CC1.Cl (racemic) | 23.4 nM | > 1000 nM | > 1000 nM | 805 nM | > 10000 nM | > 10000 nM | 2140 nM | 543 nM | 
CC(C)N1CCC(C(CN2CCN(CCCc3ccccc3-c3ccccc3)CC2)c2ccc(F)cc2)CC1.Cl (racemic) | 19.7 nM | > 1000 nM | > 1000 nM | 423 nM | > 10000 nM | > 10000 nM | 953 nM | 1180 nM | Active
